# Test results as given in PMC8234803, “In Vitro Metabolism of Six C-Glycosidic Flavonoids from Passiflora incarnata L” (International Journal of Molecular Sciences, 2021).
# “Also recorded” adds a separate entry of the source.
# Key:
# [1] = Stability testing in test buffer (HBSS pH 6.0) under assay conditions, HPLC-DAD; type: physicochemical; settings: 10 µM in HBSS pH 6.0, 37 °C, 5% CO2; after 3 h of incubation
# Experimental: To guarantee the stability of all test substances during the metabolism assay on Caco-2 cells, they were incubated in the test buffer under assay conditions. Test samples were collected each hour for 5 h and were measured via HPLC-DAD.
# To ensure stability during the Caco-2 metabolism experiments, all test substances were dissolved in DMSO to a concentration of 20 mM and diluted to 10 µM in an appropriate volume of HBSS (pH 6.0), resulting in a DMSO concentration of less than 1%. The test solution (1 mL) was aliquoted into a 12-well Transwell® plate and incubated for 5 h in an atmosphere of 5% CO2 and 90% relative humidity at 37 °C. Test samples (100 µL) were collected after t = 0, 1, 2, 3, 4, and 5 h and measured via HPLC-DAD. The peak area of the test substance at time t = 0 h was defined as 100%, and all other peak areas were related to calculate the proportional stability. The stability was calculated as % = area/area0 × 100. Stability testing was performed on three independent days with freshly prepared solutions (n = 3).
# The system consisted of the following: Elite LaChrom with an L2200 autosampler, L2130 pump, L2350 column oven, L2444 DAD, and EZChrom Elite 3.1.7 software (Hitachi, Tokyo, Japan); column: Kinetex® Biphenyl, 100 Å, 250-4.6 mm (5 µm, same material precolumn; Phenomenex, Torrance, CA, USA); injection volume 30 µL; oven temp.: 25 °C; autosampler temp.: 10 °C; detection wavelength: 340 nm; flow: 1.2 mL/min; A = H2O + 0.1% TFA, B = acetonitrile + 0.1% TFA; gradient: 0–2 min 10% B, 2–10 min 10% B → 100% B, 10–11 min 100% B → 10% B, 11–15 min 10% B.
# [2] = tested on: Caco-2 cells; test: MTT assay under metabolic conditions (cell viability); type: cell-based, human; settings: 10, 25, 50, 75, 100 µM in HBSS (pH 6.0), 5 h incubation
# Experimental: All six substances were tested in five different dilutions in HBSS (pH 6.0). The determined viability values of O, IO, S, IS, V, and IV are listed in the Supplementary Materials (Figure S2).
# Caco-2 cells in the logarithmic growth phase were seeded in 96-well plates at a density of 3 × 10^4 cells/well and incubated at 37 °C in an atmosphere of 5% CO2 and constant moisture in an incubator. After 24 h, the cell culture medium was removed, and 100 µL of HBSS solution (negative control), 0.5% DMSO in HBSS solution (solvent control), or flavonoid samples in HBSS solution (6 flavonoids at concentrations of 10, 25, 50, 75, and 100 µM) was applied in quintuplicate and incubated for 5 h. Afterwards, the HBSS solutions were removed and replaced with an MTT solution in DMEM (0.4 mg/mL) and incubated for another 3 h at 37 °C. Then, the MTT solution was discarded, and the cells were fixed with a 10% SDS solution in PBS and stored at room temperature in the dark. After 24 h, the absorbance was measured on a Tecan microplate reader (Tecan Trading AG, Switzerland) at 560 nm. The viability rate was calculated as % = A/A0 × 100, with A as the average absorbance value of the treatment and solvent control groups and A0 as the average absorbance value of the negative control group. The assay was performed three times in pentaplicate.
# The human colon adenocarcinoma cell line Caco-2 was obtained from the ATCC (American Type Culture Collection, Manassas, VA, USA). The cell line was determined to be free of mycoplasma contamination by PCR and culture from GATC Biotech AG (Konstanz, Germany). The cells were cultured in DMEM supplemented with 10% (v/v) FBS, 1% (v/v) NEAA, and 1% (v/v) antibiotics (penicillin/streptomycin) in an atmosphere of 5% CO2 and 90% relative humidity at 37 °C. The culture medium was replaced every 3 days, and the cells were split 1:5 using trypsin-EDTA once 90% confluence was obtained.
# [3] = tested on: Caco-2 cell monolayer; test: Caco-2 monolayer metabolism experiment, metabolites identified via UHPLC-DAD-MS(/MS); type: in vitro ADME, human; settings: for Metabolites of the aglycones (cleavage of the C–C glycosidic bond): 100 µM approach; for Possible metabolite (phase II metabolite identified by MS/MS fragmentation and comparison with reference compound after enzymatic hydrolysis): glucuronidase/sulfatase cleavage, UHPLC-DAD-MS/MS; for Extent of phase I and II metabolism (in words): independent of incubation time and concentration
# Experimental: To obtain information on the in vitro metabolism of the six tested C-glycosidic flavonoids in the intestine, experiments were carried out using the Caco-2 monolayer model (Figure 2). Metabolite profiles were characterized at two different concentrations (10 and 100 µM; n = 3) and after two different incubation times (3 or 5 h; n = 3) in order to determine the influence of concentration and time on the metabolism reactions that occurred. Furthermore, to analyze the distribution of the observed metabolites, samples were collected from the cell lysate and the apical and basolateral compartments. All samples of the metabolism experiments using the Caco-2 cell monolayer were analyzed using UHPLC-DAD-MS and UHPLC-DAD-MS/MS. Metabolites were identified by libraries that were prepared for each compound (Tables S1–S6). The O and IO libraries contained 67 metabolites (Tables S1 and S2), the S and IS libraries contained 106 metabolites (Tables S3 and S4), and the V and IV libraries contained 71 possible metabolites (Tables S5 and S6).
# To form a confluent and differentiated monolayer, cells at passages 16–45 were seeded into the inserts of 12-well Transwell® plates at a density of 3.0 × 10^5 cells/cm^2. Afterwards, the culture medium was replaced every day, and the metabolism experiment was performed 21 days after seeding. The apical and basolateral compartments contained 0.5 and 1.5 mL of cell culture medium, respectively.
# On day 21, the cell culture medium was removed from the apical and basolateral compartments, and the Caco-2 cell monolayer was washed two times with prewarmed HBSS. The Transwell® plates containing HBSS were incubated at 37 °C for 15 min to measure the transepithelial electrical resistance (TEER) value. The integrity of the cell monolayers was evaluated by TEER values between the apical and basolateral sides with the Evohm2 system (World Precision Instruments, Sarasota, FL, USA). The cell inserts were only used for the metabolism experiments if the resistance exceeded 350 Ω/cm^2. The six test substances were dissolved in DMSO to a stock solution of 20 mM. The HBSS was adjusted to pH 6.0 and 7.4 with 1 M HCl. Afterwards, the stock solutions were diluted to 10 or 100 µM in an appropriate volume of HBSS (pH 6.0) to obtain a DMSO concentration of <1%. The test solutions were added to the apical side (0.5 mL), while the basolateral side was filled with 1.5 mL of HBSS (pH 7.4). The Transwell® plates were incubated at 37 °C for 3 or 5 h, respectively. After this period, solutions from the apical and basolateral compartments were collected in separate tubes, washed twice with 500 µL of HBSS, and then collected again. The samples were lyophilized and stored at −20 °C until they were measured using UHPLC-DAD-MS. After the experiment, Transwell® inserts were apically (0.5 mL) and basolaterally (1.5 mL) filled with HBSS and warmed to 37 °C for 20 min. Then, the TEER values were measured to guarantee the integrity of the monolayer during the experiment. The experiment was performed in triplicate for each substance, concentration, and incubation time.
# After the metabolism experiment, cell monolayers were washed twice with PBS and incubated with 200 µL of trypsin-EDTA for 10 min at 37 °C in an atmosphere of 5% CO2 and constant humidity in the incubator. The cells were removed from the well by pipetting up and down, and were collected in a tube. The well was washed twice with PBS (1 mL), and the wash solution was also collected in the corresponding tube. The mixture was centrifuged (1000× g rpm, 5 min), and the supernatant was discarded.
# [4] = metabolite at RT 5.134 min, m/z 477.0674
# [5] = metabolite at RT 5.476 min, m/z 461.0724
# [6] = initial concentration 10 µM, 3 h, apical compartment
# [7] = initial concentration 10 µM, 3 h, basolateral compartment
# [8] = initial concentration 10 µM, 5 h, apical compartment
# [9] = initial concentration 100 µM, 3 h, apical compartment
# [10] = initial concentration 100 µM, 3 h, basolateral compartment
# [11] = initial concentration 100 µM, 5 h, apical compartment
# [12] = initial concentration 100 µM, 5 h, cell lysate
Stability (content relative to t = 0 h) [1],"Extent of metabolism (in words) ([3]; 100 µM, 3 and 5 h)","Possible metabolite (phase II metabolite identified by MS/MS fragmentation and comparison with reference compound after enzymatic hydrolysis) [3, 4]","Possible metabolite (phase II metabolite identified by MS/MS fragmentation and comparison with reference compound after enzymatic hydrolysis) [3, 5]",Compound,Effect on the viability of Caco-2 cells (in words) [2],"Extent of metabolism (in words) ([3]; 10 µM, 3 and 5 h)",Metabolites of the aglycones (cleavage of the C–C glycosidic bond) [3],Extent of phase I and II metabolism (in words) [3],"Possible metabolite detected [3, 6]","Possible metabolite detected [3, 7]","Possible metabolite detected [3, 8]","Possible metabolite detected [3, 9]","Possible metabolite detected [3, 10]","Possible metabolite detected [3, 11]","Possible metabolite detected [3, 12]",also measured
approximately 100%,extensive metabolism,Quercetin-glucuronide,Luteolin-glucuronide,"O=c1cc(-c2ccc(O)c(O)c2)oc2cc(O)c([C@@H]3O[C@H](CO)[C@@H](O)[C@H](O)[C@H]3O)c(O)c12 [IO, isoorientin]",no significant effects at any concentration,broader ranges of phase I and II metabolites,metabolites of the corresponding aglycones apigenin and luteolin were also detected,highly metabolized in phase I and II reactions,Isoorientin-sulfate; also recorded: Hydroxy-luteolin-glucuronide; also recorded: Hydroxy-methoxy-isoorientin,Isoorientin-sulfate; also recorded: Hydroxy-methoxy-isoorientin,Isoorientin-sulfate; also recorded: Hydroxy-methoxy-isoorientin,Methoxy-isoorientin-sulfate; also recorded: Hydroxy-luteolin-glucuronide; also recorded: Methoxy-luteolin; also recorded: Hydroxy-methoxy-isoorientin,Isoorientin-sulfate; also recorded: Hydroxy-methoxy-isoorientin,Hydroxy-isoorientin; also recorded: Methoxy-isoorientin-sulfate; also recorded: Hydroxy-luteolin-glucuronide,Isoorientin-sulfate; also recorded: Methoxy-isoorientin,"Possible metabolite (phase II metabolite identified by MS/MS fragmentation and comparison with reference compound after enzymatic hydrolysis) ([3]; metabolite at RT 2.514 5.107 min, m/z 527.0501): IO-sulfate; Possible metabolite detected ([3]; initial concentration 100 µM, 3 h, cell lysate): Isoorientin-sulfate; also recorded: Methoxy-isoorientin; Possible metabolite detected ([3]; initial concentration 100 µM, 5 h, basolateral compartment): Isoorientin-sulfate"
approximately 100%,extensive metabolism,Quercetin-glucuronide,Luteolin-glucuronide,"O=c1cc(-c2ccc(O)c(O)c2)oc2c([C@@H]3O[C@H](CO)[C@@H](O)[C@H](O)[C@H]3O)c(O)cc(O)c12 [O, orientin]",no significant effects at any concentration,broader ranges of phase I and II metabolites,metabolites of the corresponding aglycones apigenin and luteolin were also detected,highly metabolized in phase I and II reactions,Orientin-sulfate; also recorded: Hydroxy-methoxy-orientin,Orientin-sulfate; also recorded: Hydroxy-methoxy-orientin,Orientin-sulfate; also recorded: Methoxy-orientin,Orientin-sulfate; also recorded: Hydroxy-luteolin-glucuronide; also recorded: Methoxy-luteolin; also recorded: Hydroxy-methoxy-orientin,Orientin-sulfate,Orientin-sulfate; also recorded: Hydroxy-luteolin-glucuronide; also recorded: Hydroxy-methoxy-orientin,Methoxy-orientin,"Possible metabolite (phase II metabolite identified by MS/MS fragmentation and comparison with reference compound after enzymatic hydrolysis) ([3]; metabolite at RT 3.146 min, m/z 527.0499): O-sulfate"

Compound,Stability (content relative to t = 0 h) [1],"Extent of metabolism (in words) ([3]; 100 µM, 3 and 5 h)","Possible metabolite (phase II metabolite identified by MS/MS fragmentation and comparison with reference compound after enzymatic hydrolysis) [3, 4]","Possible metabolite (phase II metabolite identified by MS/MS fragmentation and comparison with reference compound after enzymatic hydrolysis) [3, 5]",Effect on the viability of Caco-2 cells (in words) [2],"Extent of metabolism (in words) ([3]; 10 µM, 3 and 5 h)",Metabolites of the aglycones (cleavage of the C–C glycosidic bond) [3],Extent of phase I and II metabolism (in words) [3],"Possible metabolite detected [3, 6]","Possible metabolite detected [3, 7]","Possible metabolite detected [3, 8]","Possible metabolite detected [3, 9]","Possible metabolite detected [3, 10]","Possible metabolite detected [3, 11]","Possible metabolite detected [3, 12]",also measured
"O=c1cc(-c2ccc(O)cc2)oc2c([C@@H]3O[C@H](CO)[C@@H](O)[C@H](O)[C@H]3O)c(O)c([C@@H]3OC[C@H](O)[C@H](O)[C@H]3O)c(O)c12 [IS, isoschaftoside]",approximately 100%,a few hydroxylated and methoxylated derivatives,,,no significant effects at any concentration,very limited metabolism,,poorly metabolized in phase I and II reactions,,,,Methoxy-isoschaftoside,,,,"Phase II conjugates containing glucuronic acid or sulfates ([3]; 10 µM, 3 and 5 h): No phase II conjugates containing glucuronic acid or sulfates were detectable; Phase II metabolites with glucuronic acid or sulfates ([3]; 100 µM, 3 and 5 h): lacked the presence of phase II metabolites with glucuronic acid or sulfates"
